In ChEMBL document CHEMBL1128205, “Design and synthesis of conformationally constrained analogues of 4-(3-butoxy-4-methoxybenzyl)imidazolidin-2-one (Ro 20-1724) as potent inhibitors of cAMP-specific phosphodiesterase” (J Med Chem, 1995):
pIC50, pKi: −log10 of the molar value.

target: 3',5'-cyclic-AMP phosphodiesterase 4B (Homo sapiens, UniProt Q07343); assay: Inhibition of human Phosphodiesterase 4B
Sequence (Q07343 whole entry): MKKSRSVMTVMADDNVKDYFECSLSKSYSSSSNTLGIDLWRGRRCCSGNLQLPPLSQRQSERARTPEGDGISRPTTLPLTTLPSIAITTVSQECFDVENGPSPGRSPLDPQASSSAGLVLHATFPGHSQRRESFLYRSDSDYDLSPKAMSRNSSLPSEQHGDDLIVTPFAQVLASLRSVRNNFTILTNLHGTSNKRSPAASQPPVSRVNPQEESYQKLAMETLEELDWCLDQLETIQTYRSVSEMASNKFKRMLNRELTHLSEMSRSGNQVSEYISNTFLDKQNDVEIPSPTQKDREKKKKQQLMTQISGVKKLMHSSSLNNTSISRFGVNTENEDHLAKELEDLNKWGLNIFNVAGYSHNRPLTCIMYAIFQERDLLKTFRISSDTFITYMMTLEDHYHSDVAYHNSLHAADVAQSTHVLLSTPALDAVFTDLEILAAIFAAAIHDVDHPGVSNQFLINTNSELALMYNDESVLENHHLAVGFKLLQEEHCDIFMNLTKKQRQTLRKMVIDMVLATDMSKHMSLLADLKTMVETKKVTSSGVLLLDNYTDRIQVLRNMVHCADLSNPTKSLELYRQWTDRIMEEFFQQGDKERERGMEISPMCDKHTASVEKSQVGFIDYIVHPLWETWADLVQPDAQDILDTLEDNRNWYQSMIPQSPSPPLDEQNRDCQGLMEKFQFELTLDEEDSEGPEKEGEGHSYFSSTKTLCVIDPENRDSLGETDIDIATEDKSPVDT

| SMILES | pKi |
| --- | --- |
| COc1ccc([C@H]2CCN3C(=O)CC[C@@H]23)cc1OC1CCCC1 | 6.47 |
| COc1ccc([C@H]2CCN3C(=O)NC[C@@H]23)cc1OC1CCCC1 | 6.23 |
| COc1ccc([C@H]2CCN3C(=O)CC[C@H]23)cc1OC1CCCC1 | 7.20 |
| COc1ccc([C@H]2CCN3C(=O)NC[C@H]23)cc1OC1CCCC1 | 7.57 |

Continued, values first:

| pKi | SMILES |
| --- | --- |
| 6.35 | COc1ccc(CC2CNC(=O)N2)cc1OC1CCCC1 (stereo not given) |
| 6.55 | COc1ccc([C@H]2CCN3C(=O)OC[C@@H]23)cc1OC1CCCC1 |
| 7.15 | COc1ccc([C@H]2CCN3C(=O)OC[C@H]23)cc1OC1CCCC1 |

organism: Homo sapiens; assay: Inhibition of LPS-induced TNF-alpha secretion from purified human peripheral blood monocytes; assay type: functional

| pIC50 | SMILES |
| --- | --- |
| 5.74 | CCCCOc1cc(CC2CNC(=O)N2)ccc1OC (stereo not given) [RO-201724] |
| 6.49 | COc1ccc(C2CNC(=O)C2)cc1OC1CCCC1 (stereo not given) [ROLIPRAM] |

| SMILES | pIC50 |
| --- | --- |
| COc1ccc([C@H]2CCN3C(=O)NC[C@H]23)cc1OC1CCCC1 | 6.54 |
